From ChEMBL document CHEMBL2396612 (Bioorg Med Chem Lett, 2013)

Tests used:
[1] = target: T1, Sterol O-acyltransferase 2 (Homo sapiens, UniProt O75908); test: Inhibition of ACAT2 (unknown origin)
T1 sequence (O75908 whole entry): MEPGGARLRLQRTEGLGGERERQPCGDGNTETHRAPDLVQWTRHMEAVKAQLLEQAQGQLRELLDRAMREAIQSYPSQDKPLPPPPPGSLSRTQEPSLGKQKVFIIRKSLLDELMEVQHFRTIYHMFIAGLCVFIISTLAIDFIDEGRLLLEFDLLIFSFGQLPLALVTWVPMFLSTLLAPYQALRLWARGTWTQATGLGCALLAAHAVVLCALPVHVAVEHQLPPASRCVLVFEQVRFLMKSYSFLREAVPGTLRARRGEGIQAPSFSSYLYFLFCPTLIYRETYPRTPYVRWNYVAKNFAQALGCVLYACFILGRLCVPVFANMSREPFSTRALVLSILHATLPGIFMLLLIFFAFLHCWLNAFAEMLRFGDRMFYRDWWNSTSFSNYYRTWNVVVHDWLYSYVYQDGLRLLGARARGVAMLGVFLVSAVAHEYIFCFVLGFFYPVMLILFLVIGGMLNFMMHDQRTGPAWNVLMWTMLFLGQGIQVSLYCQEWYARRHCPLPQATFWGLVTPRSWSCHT

[2] = target: T2, Sterol O-acyltransferase 1 (Homo sapiens, UniProt P35610); test: Inhibition of ACAT1 (unknown origin)
T2 sequence (P35610 whole entry): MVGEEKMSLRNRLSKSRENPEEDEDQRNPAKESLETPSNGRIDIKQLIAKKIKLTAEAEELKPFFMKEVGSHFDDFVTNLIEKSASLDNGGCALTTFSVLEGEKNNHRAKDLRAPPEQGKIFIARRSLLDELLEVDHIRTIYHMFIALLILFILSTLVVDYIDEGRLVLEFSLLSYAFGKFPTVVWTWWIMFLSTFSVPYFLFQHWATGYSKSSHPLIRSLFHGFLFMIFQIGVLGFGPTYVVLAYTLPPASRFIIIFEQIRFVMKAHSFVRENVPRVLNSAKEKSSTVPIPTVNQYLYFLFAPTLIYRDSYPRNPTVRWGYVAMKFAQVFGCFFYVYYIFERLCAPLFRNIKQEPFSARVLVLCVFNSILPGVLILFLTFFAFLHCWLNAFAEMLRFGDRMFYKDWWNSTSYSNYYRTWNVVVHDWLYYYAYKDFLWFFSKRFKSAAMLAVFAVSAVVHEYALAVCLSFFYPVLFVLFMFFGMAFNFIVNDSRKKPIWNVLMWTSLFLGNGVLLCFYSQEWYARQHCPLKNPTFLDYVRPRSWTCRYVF

Homo sapiens = organism: Homo sapiens; test: Selectivity index, ratio of IC50 for ACAT1 (unknown origin) to IC50 for ACAT2 (unknown origin)

Row | Structure (SMILES) | IC50 [1] [nM] | IC50 [2] [nM] | Ratio IC50 (Homo sapiens)
1 | Cc1ccc([C@@H]2OC[C@@]3(C)[C@@H]4C[C@H](OC(=O)c5ccc(F)cc5)[C@@]5(C)Oc6cc(-c7cccnc7)oc(=O)c6[C@H](O)[C@@H]5[C@@]4(C)CC[C@@H]3O2)cc1 | 15.1 | 5540 | 367
2 | C[C@@]12CO[C@@H](c3ccccc3)O[C@H]1CC[C@@]1(C)[C@H]2C[C@H](OC(=O)c2ccc(Br)cc2)[C@@]2(C)Oc3cc(-c4cccnc4)oc(=O)c3[C@H](O)[C@H]12 | 10 | 6900 | 690
3 | Cc1ccccc1[C@@H]1OC[C@@]2(C)[C@@H]3C[C@H](OC(=O)c4ccc(C#N)cc4)[C@@]4(C)Oc5cc(-c6cccnc6)oc(=O)c5[C@H](O)[C@@H]4[C@@]3(C)CC[C@@H]2O1 | 11.8 | > 72800 | > 6160
4 | COc1cccc(C(=O)O[C@H]2C[C@H]3[C@]4(C)CO[C@@H](c5ccccc5)O[C@H]4CC[C@]3(C)[C@H]3[C@@H](O)c4c(cc(-c5cccnc5)oc4=O)O[C@]23C)c1 | 70 | 4300 | 61.4
5 | C[C@@]12CO[C@@H](c3ccccc3)O[C@H]1CC[C@@]1(C)[C@H]2C[C@H](OC(=O)c2ccc(Cl)cc2)[C@@]2(C)Oc3cc(-c4cccnc4)oc(=O)c3[C@H](O)[C@H]12 | 9 | 5800 | 644
6 | C[C@@]12CO[C@@H](c3ccccc3)O[C@H]1CC[C@@]1(C)[C@H]2C[C@H](OC(=O)c2ccc(C#N)cc2)[C@@]2(C)Oc3cc(-c4cccnc4)oc(=O)c3[C@H](O)[C@H]12 | 6 | 2800 | 467
7 | C[C@@]12CO[C@@H](c3ccccc3)O[C@H]1CC[C@@]1(C)[C@H]2C[C@H](OC(=O)c2cccc(Br)c2)[C@@]2(C)Oc3cc(-c4cccnc4)oc(=O)c3[C@H](O)[C@H]12 | 30 | 4300 | 143
8 | CCCCC(=O)O[C@H]1C[C@H]2[C@]3(C)CO[C@@H](c4ccccc4C)O[C@H]3CC[C@]2(C)[C@H]2[C@@H](O)c3c(cc(-c4cccnc4)oc3=O)O[C@]12C | 10 | 3200 | 320
9 | C[C@@]12CO[C@@H](c3ccccc3)O[C@H]1CC[C@@]1(C)[C@H]2C[C@H](OC(=O)c2ccccc2C#N)[C@@]2(C)Oc3cc(-c4cccnc4)oc(=O)c3[C@H](O)[C@H]12 | 320 | – | –
10 | C[C@@]12CO[C@@H](c3ccccc3)O[C@H]1CC[C@@]1(C)[C@H]2C[C@H](OC(=O)c2ccccc2F)[C@@]2(C)Oc3cc(-c4cccnc4)oc(=O)c3[C@H](O)[C@H]12 | 50 | 2700 | 54
11 | Cc1cccc(C)c1[C@@H]1OC[C@@]2(C)[C@@H]3C[C@H](OC(=O)c4ccc(C#N)cc4)[C@@]4(C)Oc5cc(-c6cccnc6)oc(=O)c5[C@H](O)[C@@H]4[C@@]3(C)CC[C@@H]2O1 | 7.2 | > 71200 | > 9920
12 | Cc1ccc([C@@H]2OC[C@@]3(C)[C@@H]4C[C@H](OC(=O)c5ccc(C#N)cc5)[C@@]5(C)Oc6cc(-c7cccnc7)oc(=O)c6[C@H](O)[C@@H]5[C@@]4(C)CC[C@@H]3O2)cc1 | 9.7 | 8110 | 836
13 | COc1ccccc1[C@@H]1OC[C@@]2(C)[C@@H]3C[C@H](OC(=O)c4ccc(C#N)cc4)[C@@]4(C)Oc5cc(-c6cccnc6)oc(=O)c5[C@H](O)[C@@H]4[C@@]3(C)CC[C@@H]2O1 | 36.8 | > 71000 | > 1930
14 | CCCCC(=O)O[C@H]1C[C@H]2[C@]3(C)CO[C@@H](c4ccccc4)O[C@H]3CC[C@]2(C)[C@H]2[C@@H](O)c3c(cc(-c4cccnc4)oc3=O)O[C@]12C | 20 | 4000 | 200
15 | C[C@@]12CO[C@@H](c3ccccc3)O[C@H]1CC[C@@]1(C)[C@H]2C[C@H](OC(=O)c2cccc(F)c2)[C@@]2(C)Oc3cc(-c4cccnc4)oc(=O)c3[C@H](O)[C@H]12 | 13 | 3000 | 231
16 | Cc1cccc([C@@H]2OC[C@@]3(C)[C@@H]4C[C@H](OC(=O)c5ccc(C#N)cc5)[C@@]5(C)Oc6cc(-c7cccnc7)oc(=O)c6[C@H](O)[C@@H]5[C@@]4(C)CC[C@@H]3O2)c1 | 7.8 | 3730 | 478
17 | COc1ccccc1C(=O)O[C@H]1C[C@H]2[C@]3(C)CO[C@@H](c4ccccc4)O[C@H]3CC[C@]2(C)[C@H]2[C@@H](O)c3c(cc(-c4cccnc4)oc3=O)O[C@]12C | 320 | 3400 | 10.5
18 | COc1ccc(C(=O)O[C@H]2C[C@H]3[C@]4(C)CO[C@@H](c5ccccc5)O[C@H]4CC[C@]3(C)[C@H]3[C@@H](O)c4c(cc(-c5cccnc5)oc4=O)O[C@]23C)cc1 | 14 | 6900 | 493
19 | C[C@@]12CO[C@@H](c3ccccc3)O[C@H]1CC[C@@]1(C)[C@H]2C[C@H](OC(=O)c2cccc(Cl)c2)[C@@]2(C)Oc3cc(-c4cccnc4)oc(=O)c3[C@H](O)[C@H]12 | 19 | 2700 | 142
20 | C[C@@]12CO[C@@H](c3ccccc3)O[C@H]1CC[C@@]1(C)[C@H]2C[C@H](OC(=O)c2cccc(C#N)c2)[C@@]2(C)Oc3cc(-c4cccnc4)oc(=O)c3[C@H](O)[C@H]12 | 30 | 2200 | 73.3
21 | Cc1ccc([C@@H]2OC[C@@]3(C)[C@@H]4C[C@H](OC(=O)c5ccc(C#N)cc5)[C@@]5(C)Oc6cc(-c7cccnc7)oc(=O)c6[C@H](O)[C@@H]5[C@@]4(C)CC[C@@H]3O2)c(C)c1 | 6.6 | 10000 | 1520
22 | C[C@@]12CO[C@@H](c3ccccc3F)O[C@H]1CC[C@@]1(C)[C@H]2C[C@H](OC(=O)c2ccc(C#N)cc2)[C@@]2(C)Oc3cc(-c4cccnc4)oc(=O)c3[C@H](O)[C@H]12 | 6.8 | – | –
23 | Cc1cccc([C@@H]2OC[C@@]3(C)[C@@H]4C[C@H](OC(=O)c5ccc(F)cc5)[C@@]5(C)Oc6cc(-c7cccnc7)oc(=O)c6[C@H](O)[C@@H]5[C@@]4(C)CC[C@@H]3O2)c1 | 47.6 | 9510 | 200
24 | C[C@@]12CO[C@@H](c3cccc4ccccc34)O[C@H]1CC[C@@]1(C)[C@H]2C[C@H](OC(=O)c2ccc(C#N)cc2)[C@@]2(C)Oc3cc(-c4cccnc4)oc(=O)c3[C@H](O)[C@H]12 | 23.2 | > 69100 | > 2980
25 | C[C@@]12CO[C@@H](c3ccccc3)O[C@H]1CC[C@@]1(C)[C@H]2C[C@H](OC(=O)c2ccc(F)cc2)[C@@]2(C)Oc3cc(-c4cccnc4)oc(=O)c3[C@H](O)[C@H]12 | 7 | 6200 | 886
26 | C[C@@]12CO[C@@H](c3ccccc3)O[C@H]1CC[C@@]1(C)[C@H]2C[C@H](OC(=O)c2ccc(C=O)cc2)[C@@]2(C)Oc3cc(-c4cccnc4)oc(=O)c3[C@H](O)[C@H]12 | 30 | 5500 | 183
27 | Cc1ccccc1[C@@H]1OC[C@@]2(C)[C@@H]3C[C@H](OC(=O)c4ccc(F)cc4)[C@@]4(C)Oc5cc(-c6cccnc6)oc(=O)c5[C@H](O)[C@@H]4[C@@]3(C)CC[C@@H]2O1 | 23 | – | –
28 | C[C@@]12CO[C@@H](c3ccccc3)O[C@H]1CC[C@@]1(C)[C@H]2C[C@H](OC(=O)c2ccccc2Cl)[C@@]2(C)Oc3cc(-c4cccnc4)oc(=O)c3[C@H](O)[C@H]12 | 110 | 1780 | 16.2
29 | CC(=O)OC[C@@]1(C)[C@@H]2C[C@H](OC(=O)c3ccc(C#N)cc3)[C@@]3(C)Oc4cc(-c5cccnc5)oc(=O)c4[C@H](O)[C@@H]3[C@@]2(C)CC[C@@H]1OC(C)=O | – | – | 4620
30 | C[C@@]12CO[C@@H](c3ccccc3)O[C@H]1CC[C@@]1(C)[C@H]2C[C@H](OC(=O)c2ccc([N+](=O)[O-])cc2)[C@@]2(C)Oc3cc(-c4cccnc4)oc(=O)c3[C@H](O)[C@H]12 | 60 | 13900 | 232
